Consider three compounds from patent US4617308A, “7-substituted amino-1-aryl-6,8-difluoro-1,4-dihydro-4-oxo-3-quinolinecarboxylic acids and derivatives thereof as antibacterial agents” (Warner-Lambert Company, priority 1985, dated 1986).

Structures are written as SMILES. Values after ≈ are worked out from the molar mass of the structure shown.

Assay in all cases: In vitro antibacterial activity, microtitration dilution method
Assay type in all cases: cell-based

Assay [1] relates to Escherichia coli Vogel. As to conditions: read-out: Minimal Inhibitory Concentration MIC. An excerpt:
(§1) The compounds of the invention display anti-bacterial activity when tested by the microtitration dilution method as described in Heifetz, et al, Antimicr. Agents & Chemoth., 6, 124 (1974), which is incorporated herein by reference and illustrated in the following table.

The subject of assay [2] is Staphylococcus aureus UC-76. The following applies: UC76, read-out: Minimal Inhibitory Concentration MIC.
Description: as §1

Assay [3] relates to Streptococcus faecalis MGH-2. The following applies: Enterococcus faecalis, MGH2, read-out: Minimal Inhibitory Concentration MIC.
Description: as §1

For assay [4], the system named is Proteus rettgeri M 1771. As to conditions: Providencia rettgeri, M1771, read-out: Minimal Inhibitory Concentration MIC.
Description: as §1

Assay [5] relates to Enterobacter cloacae MA 2646. As to conditions: MA2646, read-out: Minimal Inhibitory Concentration MIC.
Description: as §1

Assay [6] has as its system Pseudomonas aeruginosa UI-18. The following applies: UI18, read-out: Minimal Inhibitory Concentration MIC.
Description: as §1

In assay [7] the test system is Streptococcus pyogenes C-203. The following applies: C203, read-out: Minimal Inhibitory Concentration MIC.
Description: as §1

Assay [8] relates to Streptococcus pneumoniae SV-1. The following applies: SV1, read-out: Minimal Inhibitory Concentration MIC.
Description: as §1

Assay [9] deals with Klebsiella pneumoniae MGH-2. The following applies: MGH2, read-out: Minimal Inhibitory Concentration MIC.
Description: as §1

The test system of assay [10] is Staphylococcus aureus H 228. As to conditions: H228, read-out: Minimal Inhibitory Concentration MIC.
Description: as §1

As for `CCNCC1CCN(c2c(F)cc3c(=O)c(C(=O)O)cn(-c4ccc(F)cc4)c3c2F)C1` (stereo not drawn) [Ex. 1], the MIC in assay [1] worked out at 0.8 µg/mL (≈ 1.8 µM); in [2] it was 0.2 µg/mL (≈ 0.449 µM); in assay [3], 0.2 µg/mL (≈ 0.449 µM); in [4] it was 1.6 µg/mL (≈ 3.59 µM); in assay [5], 0.8 µg/mL (≈ 1.8 µM); in assay [6], 1.6 µg/mL (≈ 3.59 µM). Also, the MIC in assay [7] worked out at 0.4 µg/mL (≈ 0.898 µM); in [8], 0.4 µg/mL (≈ 0.898 µM); in assay [9], 1.6 µg/mL (≈ 3.59 µM); in assay [10] it was 0.1 µg/mL (≈ 0.224 µM).
As to `CCNCC1CCN(c2c(F)cc3c(=O)c(C(=O)O)cn(-c4ccccc4)c3c2F)C1` (stereo not drawn) [Ex. 3, 7-[3-[(Ethylamino)methyl]-1-pyrrolidinyl]-6,8-difluoro-1,4-dihydro-4-oxo-1-phenyl-3-quinolinecarboxylic acid], the MIC in assay [1] was 1.6 µg/mL (≈ 3.74 µM); in assay [2], 0.2 µg/mL (≈ 0.468 µM); in [3], 0.8 µg/mL (≈ 1.87 µM); in [4], 6.3 µg/mL (≈ 14.7 µM); in [5], 1.6 µg/mL (≈ 3.74 µM); in assay [6], 6.3 µg/mL (≈ 14.7 µM). Besides, the MIC stood at 1.6 µg/mL (≈ 3.74 µM) in [7], 1.6 µg/mL (≈ 3.74 µM) in [8], 1.6 µg/mL (≈ 3.74 µM) in [9] and 0.8 µg/mL (≈ 1.87 µM) in assay [10].
As to `NCC1CCN(c2c(F)cc3c(=O)c(C(=O)O)cn(-c4ccccc4)c3c2F)C1` (stereo not drawn) [Ex. 4, 7-[3-(Aminomethyl)-1-pyrrolidinyl]-6,8-difluoro-1,4-dihydro-4-oxo-1-phenyl-3-quinoline carboxylic acid], the MIC was 0.2 µg/mL (≈ 0.501 µM) in [1]; 0.1 µg/mL (≈ 0.25 µM) in assay [2]; 0.2 µg/mL (≈ 0.501 µM) in assay [3]; 1.6 µg/mL (≈ 4.01 µM) in [4]; 0.4 µg/mL (≈ 1 µM) in assay [5]; 1.6 µg/mL (≈ 4.01 µM) in assay [6]. The MIC was determined as 0.2 µg/mL (≈ 0.501 µM) in assay [7], 0.2 µg/mL (≈ 0.501 µM) in [8], 0.8 µg/mL (≈ 2 µM) in assay [9] and 0.2 µg/mL (≈ 0.501 µM) in [10].
